Reference: PubChem BioAssay AID1259407 (Chemical Carcinogenesis Research Information System (CCRIS), 2018)
Activity calls are given as the source filed them. How the calls were made is not given here.

Tested on: CCRIS mutagenicity, Ames/micronucleus/aberration tests
Assay: CCRIS mutagenicity studies
[1] = Test System: AMES SALMONELLA TYPHIMURIUM, Strain/Indicator: TA98, Metabolic Activation: NONE, Method: PREINCUBATION
[2] = Test System: AMES SALMONELLA TYPHIMURIUM, Strain/Indicator: TA98, Metabolic Activation: RAT, LIVER, S-9, AROCLOR 1254 (10%), Method: PREINCUBATION
[3] = Test System: AMES SALMONELLA TYPHIMURIUM, Strain/Indicator: TA100, Metabolic Activation: NONE, Method: PREINCUBATION
[4] = Test System: AMES SALMONELLA TYPHIMURIUM, Strain/Indicator: TA100, Metabolic Activation: RAT, LIVER, S-9, AROCLOR 1254 (10%), Method: PREINCUBATION
[5] = Test System: AMES SALMONELLA TYPHIMURIUM, Strain/Indicator: TA1535, Metabolic Activation: HAMSTER, LIVER, S-9, AROCLOR 1254 (10%), Method: PREINCUBATION
[6] = Test System: AMES SALMONELLA TYPHIMURIUM, Strain/Indicator: TA1535, Metabolic Activation: NONE, Method: PREINCUBATION
[7] = Test System: AMES SALMONELLA TYPHIMURIUM, Strain/Indicator: TA1535, Metabolic Activation: RAT, LIVER, S-9, AROCLOR 1254 (10%), Method: PREINCUBATION
[8] = Test System: AMES SALMONELLA TYPHIMURIUM, Strain/Indicator: TA1537, Metabolic Activation: HAMSTER, LIVER, S-9, AROCLOR 1254 (10%), Method: PREINCUBATION
[9] = Test System: AMES SALMONELLA TYPHIMURIUM, Strain/Indicator: TA1537, Metabolic Activation: NONE, Method: PREINCUBATION
[10] = Test System: AMES SALMONELLA TYPHIMURIUM, Strain/Indicator: TA98, Metabolic Activation: HAMSTER, LIVER, S-9, AROCLOR 1254 (10%), Method: PREINCUBATION
[11] = Test System: AMES SALMONELLA TYPHIMURIUM, Strain/Indicator: TA100, Metabolic Activation: HAMSTER, LIVER, S-9, AROCLOR 1254 (10%), Method: PREINCUBATION
[12] = Test System: AMES SALMONELLA TYPHIMURIUM, Strain/Indicator: TA1537, Metabolic Activation: RAT, LIVER, S-9, AROCLOR 1254 (10%), Method: PREINCUBATION

CCCCCCCCCCCC(=O)O
mutagenic call (Test System: AMES SALMONELLA TYPHIMURIUM, Strain/Indicator: TA97, Metabolic Activation: HAMSTER, LIVER, S-9, AROCLOR 1254 (10%), Method: PREINCUBATION): inactive; negative | mutagenic call (Test System: AMES SALMONELLA TYPHIMURIUM, Strain/Indicator: TA97, Metabolic Activation: HAMSTER, LIVER, S-9, AROCLOR 1254 (30%), Method: PREINCUBATION): inactive; negative | mutagenic call (Test System: AMES SALMONELLA TYPHIMURIUM, Strain/Indicator: TA97, Metabolic Activation: NONE, Method: PREINCUBATION): inactive; negative | mutagenic call (Test System: AMES SALMONELLA TYPHIMURIUM, Strain/Indicator: TA97, Metabolic Activation: RAT, LIVER, S-9, AROCLOR 1254 (10%), Method: PREINCUBATION): inactive; negative | mutagenic call (Test System: AMES SALMONELLA TYPHIMURIUM, Strain/Indicator: TA97, Metabolic Activation: RAT, LIVER, S-9, AROCLOR 1254 (30%), Method: PREINCUBATION): inactive; negative | mutagenic call (Test System: AMES SALMONELLA TYPHIMURIUM, Strain/Indicator: TA98, Metabolic Activation: HAMSTER, LIVER, S-9, AROCLOR 1254 (10 OR 30%), Method: PREINCUBATION): inactive; negative | mutagenic call [1]: inactive; negative | mutagenic call [2]: inactive; negative | mutagenic call (Test System: AMES SALMONELLA TYPHIMURIUM, Strain/Indicator: TA98, Metabolic Activation: RAT, LIVER, S-9, AROCLOR 1254 (30%), Method: PREINCUBATION): inactive; negative | mutagenic call (Test System: AMES SALMONELLA TYPHIMURIUM, Strain/Indicator: TA100, Metabolic Activation: HAMSTER, LIVER, S-9, AROCLOR 1254 (10 OR 30%), Method: PREINCUBATION): inactive; negative | mutagenic call [3]: inactive; negative | mutagenic call [4]: inactive; negative | mutagenic call (Test System: AMES SALMONELLA TYPHIMURIUM, Strain/Indicator: TA100, Metabolic Activation: RAT, LIVER, S-9, AROCLOR 1254 (30%), Method: PREINCUBATION): inactive; negative | mutagenic call [5]: inactive; negative | mutagenic call (Test System: AMES SALMONELLA TYPHIMURIUM, Strain/Indicator: TA1535, Metabolic Activation: HAMSTER, LIVER, S-9, AROCLOR 1254 (30%), Method: PREINCUBATION): inactive; negative | mutagenic call [6]: inactive; negative | mutagenic call [7]: inactive; negative | mutagenic call (Test System: AMES SALMONELLA TYPHIMURIUM, Strain/Indicator: TA1535, Metabolic Activation: RAT, LIVER, S-9, AROCLOR 1254 (30%), Method: PREINCUBATION): inactive; negative | mutagenic call [8]: inactive; negative | mutagenic call (Test System: AMES SALMONELLA TYPHIMURIUM, Strain/Indicator: TA1537, Metabolic Activation: HAMSTER, LIVER, S-9, AROCLOR 1254 (30%), Method: PREINCUBATION): inactive; negative | mutagenic call [9]: inactive; negative | mutagenic call (Test System: AMES SALMONELLA TYPHIMURIUM, Strain/Indicator: TA1537, Metabolic Activation: RAT, LIVER, S-9, AROCLOR 1254 (30%), Method: PREINCUBATION): inactive; negative

O=C(O)c1ccc2c(c1)C(=O)OC2=O
mutagenic call [10]: inactive; negative | mutagenic call [1]: inactive; negative | mutagenic call (Test System: AMES SALMONELLA TYPHIMURIUM, Strain/Indicator: TA98, Metabolic Activation: RAT LIVER S-9, PHENOBARBITAL AND BETA-NAPHTHOFLAVONE, Method: PREINCUBATION): inactive; negative | mutagenic call [2]: inactive; negative | mutagenic call [11]: inactive; negative | mutagenic call [3]: inactive; negative | mutagenic call (Test System: AMES SALMONELLA TYPHIMURIUM, Strain/Indicator: TA100, Metabolic Activation: RAT LIVER S-9, PHENOBARBITAL AND BETA-NAPHTHOFLAVONE, Method: PREINCUBATION): inactive; negative | mutagenic call [4]: inactive; negative | mutagenic call (Test System: AMES SALMONELLA TYPHIMURIUM, Strain/Indicator: TA102, Metabolic Activation: NONE, Method: PREINCUBATION): inactive; negative | mutagenic call (Test System: AMES SALMONELLA TYPHIMURIUM, Strain/Indicator: TA102, Metabolic Activation: RAT LIVER S-9, PHENOBARBITAL AND BETA-NAPHTHOFLAVONE, Method: PREINCUBATION): inactive; negative | mutagenic call (Test System: AMES SALMONELLA TYPHIMURIUM, Strain/Indicator: TA104, Metabolic Activation: NONE, Method: PREINCUBATION): inactive; negative | mutagenic call (Test System: AMES SALMONELLA TYPHIMURIUM, Strain/Indicator: TA104, Metabolic Activation: RAT LIVER S-9, PHENOBARBITAL AND BETA-NAPHTHOFLAVONE, Method: PREINCUBATION): inactive; negative | mutagenic call [5]: inactive; negative | mutagenic call [6]: inactive; negative | mutagenic call (Test System: AMES SALMONELLA TYPHIMURIUM, Strain/Indicator: TA1535, Metabolic Activation: RAT LIVER S-9, PHENOBARBITAL AND BETA-NAPHTHOFLAVONE, Method: PREINCUBATION): inactive; negative | mutagenic call [7]: inactive; negative | mutagenic call [8]: inactive; negative | mutagenic call [9]: inactive; negative | mutagenic call (Test System: AMES SALMONELLA TYPHIMURIUM, Strain/Indicator: TA1537, Metabolic Activation: RAT LIVER S-9, PHENOBARBITAL AND BETA-NAPHTHOFLAVONE, Method: PREINCUBATION): inactive; negative | mutagenic call [12]: inactive; negative | mutagenic call (Test System: E.COLI, Strain/Indicator: WP2UVRA/PKM101, Metabolic Activation: NONE, Method: PREINCUBATION): inactive; negative | mutagenic call (Test System: E.COLI, Strain/Indicator: WP2UVRA/PKM101, Metabolic Activation: RAT LIVER S-9, PHENOBARBITAL AND BETA-NAPHTHOFLAVONE, Method: PREINCUBATION): inactive; negative | mutagenic call (Test System: E.COLI, Strain/Indicator: WP2UVRA, Metabolic Activation: NONE, Method: PREINCUBATION): inactive; negative | mutagenic call (Test System: E.COLI, Strain/Indicator: WP2UVRA, Metabolic Activation: RAT LIVER S-9, PHENOBARBITAL AND BETA-NAPHTHOFLAVONE, Method: PREINCUBATION): inactive; negative

CC(C)(C)Cl
mutagenic call (Test System: Mouse lymphoma, Strain/Indicator: L5178Y (tk+/tk-), Metabolic Activation: None, Method: Suspension/plate): inactive; negative | mutagenic call (Test System: Mouse lymphoma, Strain/Indicator: L5178Y (tk+/tk-), Metabolic Activation: Rat, Liver, S-9, Aroclor 1254, Method: Suspension/plate): inactive; negative

c1ccc2c(c1)-c1c3ccccc3cc3cc4ccccc4c-2c13
mutagenic call (Test System: HUMAN H1A1V2 CELLS, Strain/Indicator: TK LOCUS, Metabolic Activation: NONE, Method: SUSPENSION/PLATE): active; positive

Cc1nc2ccc3ccc4ccc(O)cc4c3c2o1
mutagenic call (Test System: AMES SALMONELLA TYPHIMURIUM, Strain/Indicator: TA98, Metabolic Activation: RAT, LIVER, S-9, AROCLOR 1254, Method: STANDARD PLATE): active; positive | mutagenic call (Test System: AMES SALMONELLA TYPHIMURIUM, Strain/Indicator: TA98, Metabolic Activation: RAT, LIVER, S-9, AROCLOR, Method: STANDARD PLATE): active; positive

Cc1cc(O)c(C(C)(C)C)cc1Sc1cc(C(C)(C)C)c(O)cc1C
mutagenic call [10]: inactive; negative | mutagenic call [1]: inactive; negative | mutagenic call (Test System: AMES SALMONELLA TYPHIMURIUM, Strain/Indicator: TA98, Metabolic Activation: NONE, Method: STANDARD PLATE): inactive; negative | mutagenic call [2]: inactive; negative | mutagenic call (Test System: AMES SALMONELLA TYPHIMURIUM, Strain/Indicator: TA98, Metabolic Activation: S-9, Method: STANDARD PLATE): inactive; negative | mutagenic call [11]: inactive; negative | mutagenic call [3]: inactive; negative | mutagenic call (Test System: AMES SALMONELLA TYPHIMURIUM, Strain/Indicator: TA100, Metabolic Activation: NONE, Method: STANDARD PLATE): inactive; negative | mutagenic call [4]: inactive; negative | mutagenic call (Test System: AMES SALMONELLA TYPHIMURIUM, Strain/Indicator: TA100, Metabolic Activation: S-9, Method: STANDARD PLATE): inactive; negative | mutagenic call [5]: inactive; negative | mutagenic call [6]: inactive; negative | mutagenic call [7]: inactive; negative | mutagenic call [8]: inactive; negative | mutagenic call [9]: inactive; negative | mutagenic call [12]: inactive; negative
